The text below walks through data of ChEMBL document CHEMBL4680168, “The development of a novel transforming growth factor-β (TGF-β) inhibitor that disrupts ligand-receptor interactions” (Eur J Med Chem, 2020).

Calls of active or inactive are those of the source. The calls are words filed in the database; no cut-off is given here. Some results are limits rather than exact numbers.

The IC50 is the concentration that inhibits the measured activity by half.

Data set [1] can be described thus: Cytotoxicity against MLEC assessed as reduction in cell viability at 50 uM by MTT assay. The settings on record: neovison vison. (Formazan colour is commonly taken as a measure of viable cells.)
A short description of data set [2]: Inhibition of TGFbeta signalling pathway in MLEC preincubated for 30 mins followed by TGF-beta1 addition and measured after 18 hrs by Steady-Glo luciferase assay. The arrangement: species or system Neovison vison.
Data set [3] relates to A549. Briefly: Inhibition of TGFBR1/TGFBR2 protein-protein interaction in human A549 cells assessed as reduction in TGF-beta1-induced MMP-2 expression preincubated for 2 hrs followed by TGF-beta1 addition and measured after 4 hrs by Western blot analysis. The settings on record: filed as antagonist, dose 20-80 µM, time 6.0 hrs. It counts as cell-based. Background: A western blot detects proteins with antibodies after separation by electrophoresis.

Data set [4] has as its system A549. Briefly: Inhibition of TGFBR1/TGFBR2 protein-protein interaction in human A549 cells assessed as inhibition of TGF-beta1-induced Akt phosphorylation at 40 uM preincubated for 2 hrs followed by TGF-beta1-stimulation and measured after 4 hrs by Western blot analysis. As to conditions: filed as antagonist, time 6.0 hrs. The data set is classed as cell-based.
For data set [5], the system named is A549. Briefly: Inhibition of TGFBR1/TGFBR2 protein-protein interaction in human A549 cells assessed as inhibition of TGF-beta1-induced Akt phosphorylation at 40 uM incubated for 6 hrs by Western blot analysis. It counts as cell-based. As to conditions: filed as antagonist.
Data set [6] relates to A549. Briefly: Inhibition of TGFBR1/TGFBR2 protein-protein interaction in human A549 cells assessed as inhibition of TGF-beta1-induced Erk1/Erk2 phosphorylation at 40 uM incubated for 6 hrs by Western blot analysis. It counts as cell-based. As to conditions: filed as antagonist.
Data set [7] deals with A549. Description: Inhibition of TGFBR1/TGFBR2 protein-protein interaction in human A549 cells assessed as inhibition of TGF-beta1-induced Smad2/Smad3 phosphorylation at 40 uM preincubated for 2 hrs followed by TGF-beta1-stimulation and measured after 4 hrs by Western blot analysis. The data set is classed as cell-based. As to conditions: filed as antagonist, time 6.0 hrs.

Data set [8] deals with A549. Description: Inhibition of TGFBR1/TGFBR2 protein-protein interaction in human A549 cells assessed as reduction in TGF-beta1-induced cell migration expression preincubated for 2 hrs followed by TGF-beta1 addition and measured after 24 hrs by crystal violet staining based transwell assay. As to conditions: filed as antagonist, dose 20-80 µM, time 26.0 hrs.
Data set [9] concerns A549. Description: Inhibition of TGFBR1/TGFBR2 protein-protein interaction in human A549 cells assessed as inhibition of TGF-beta1-induced Smad2/Smad3 phosphorylation at 40 uM incubated for 6 hrs by Western blot analysis. It counts as cell-based.
For data set [10], the system named is A549. Description: Inhibition of TGFBR1/TGFBR2 protein-protein interaction in human A549 cells assessed as reduction in TGF-beta1-induced cell migration expression preincubated for 2 hrs followed by TGF-beta1 addition and measured after 48 hrs by scratch-wound healing assay. It counts as cell-based. The settings on record: filed as antagonist, dose 20-80 µM, time 50.0 hrs.

In data set [11] the test system is A549. Briefly: Inhibition of TGFBR1/TGFBR2 protein-protein interaction in human A549 cells assessed as reduction in TGF-beta1-induced cell migration expression at 40 to 80 uM preincubated for 2 hrs followed by TGF-beta1 addition and measured after 24 hrs by scratch-wound healing assay. As to conditions: filed as antagonist, dose 40-80 µM, time 26.0 hrs. It counts as cell-based.

Data set [12] concerns A549. Description: Cytotoxicity against human A549 cells assessed as reduction in cell viability at 20 to 80 uM up to 48 hrs by MTT assay. The data set is classed as cell-based. The settings on record: a549, 48 h, dose 20-80 µM.
For data set [13], the system named is A549. Briefly: Inhibition of TGFBR1/TGFBR2 protein-protein interaction in human A549 cells assessed as reduction in TGF-beta1-induced fibronectin expression preincubated for 2 hrs followed by TGF-beta1 addition and measured after 4 hrs by Western blot analysis. The data set is classed as cell-based. The settings on record: filed as antagonist, dose 20-80 µM, time 6.0 hrs.

The subject of data set [14] is A549. Description: Inhibition of TGFBR1/TGFBR2 protein-protein interaction in human A549 cells assessed as reduction in TGF-beta1-induced alpha-SMA expression preincubated for 2 hrs followed by TGF-beta1 addition and measured after 4 hrs by Western blot analysis. The data set is classed as cell-based. The settings on record: filed as antagonist, dose 20-80 µM, time 6.0 hrs.

Data set [15] deals with A549. Description: Inhibition of TGFBR1/TGFBR2 protein-protein interaction in human A549 cells assessed as inhibition of TGF-beta1-induced Erk1/Erk2 phosphorylation at 40 uM preincubated for 2 hrs followed by TGF-beta1-stimulation and measured after 4 hrs by Western blot analysis. The data set is classed as cell-based. The settings on record: filed as antagonist, time 6.0 hrs.

A short description of data set [16]: Inhibition of TGFBR1/TGFBR2 protein-protein interaction in MLEC cells assessed as inhibition of TGF-beta1-induced dimer formation preincubated for 30 mins followed by TGF-beta1-stimulation and measured after overnight by pathhunter assay. The data set is classed as cell-based, Neovison vison. As to conditions: Neogale vison.

For the molecule `Cc1c(CNCc2ccccc2)c(C)c(CNCc2ccccc2)c(C)c1CNCc1ccccc1`, in data set [1], the Activity result is reported as “Toxic”.
On to `CC(=O)c1cccc(NCc2c(C)c(CNc3cccc(C(C)=O)c3)c(C)c(CNc3cccc(C(C)=O)c3)c2C)c1`, for which the IC50 entry in data set [2] is on record as “Not Active”. Also, the Activity result in [1] is given as “Non-Toxic”.
Take `COC(=O)c1ccc(NCc2c(C)c(CNc3ccc(C(=O)OC)cc3)c(C)c(CNc3ccc(C(=O)OC)cc3)c2C)cc1`: in data set [2], the IC50 entry is on record as “Not Active”. The Activity entry in data set [1] was “Non-Toxic”.
On the same counts, the results for `Cc1c(CNc2ccc(C(N)=O)cc2)c(C)c(CNc2ccc(C(N)=O)cc2)c(C)c1CNc1ccc(C(N)=O)cc1` are “Not Active” and “Non-Toxic”.
For the molecule `c1ccc(CN2COc3c(c4c(c5c3CN(Cc3ccccc3)CO5)CN(Cc3ccccc3)CO4)C2)cc1`, the IC50 in data set [2] (read-out: IC50) was determined as 18 µM.
On to `CC(=O)c1ccc(NCc2c(C)c(CNc3ccc(C(C)=O)cc3)c(C)c(CNc3ccc(C(C)=O)cc3)c2C)cc1`, for which the IC50 in [2] (read-out: IC50) was more than 50 µM. For the same molecule, in data set [1], the Activity entry is “Non-Toxic”.
As for `COC(=O)c1cccc(CNCc2c(C)c(CNCc3cccc(C(=O)OC)c3)c(C)c(CNCc3cccc(C(=O)OC)c3)c2C)c1`, the Activity entry in data set [1] was “Toxic”.
With `Cc1c(CNc2cccc(C(N)=O)c2)c(C)c(CNc2cccc(C(N)=O)c2)c(C)c1CNc1cccc(C(N)=O)c1`, the IC50 in data set [2] (read-out: IC50) was determined as 31.9 µM. Further, the Activity entry in [1] was “Non-Toxic”.
In the case of `Cc1c(CNc2ccccc2)c(C)c(CNc2ccccc2)c(C)c1CNc1ccccc1`, the Activity result was “Dose-dependent effect” with A549 [3]; “Dose-dependent effect” in the data set with A549 [8]; “Dose-dependent effect” in the data set with A549 [10]; “Non-Toxic” in data set [1]; “Non-Toxic” in the data set on A549 [12]; “Dose-dependent effect” in the data set on A549 [13]. Also, the Activity result in the data set with A549 [14] is “Dose-dependent effect”. Further, the IC50 in data set [2] (read-out: IC50) is 5.3 µM; in data set [16] it was 23.6 µM. In addition, the outcome in the data set with A549 [4], with A549 [5], with A549 [6], with A549 [7], in the data set on A549 [11] and in the data set with A549 [15] was Active. Further, the result with A549 [9] was inactive.
As to `COC(=O)c1ccc(CNCc2c(C)c(CNCc3ccc(C(=O)OC)cc3)c(C)c(CNCc3ccc(C(=O)OC)cc3)c2C)cc1`, the Activity entry in data set [1] is “Toxic”.
For `COC(=O)c1cccc(NCc2c(C)c(CNc3cccc(C(=O)OC)c3)c(C)c(CNc3cccc(C(=O)OC)c3)c2C)c1`, the IC50 in [2] (read-out: IC50) was determined as 38.1 µM. For the same molecule, the Activity entry in [1] is given as “Non-Toxic”.
